Test in all cases: Antibacterial screen at 200 μg/mL (cell density vs control)
Format in all cases: cell-based
Holding throughout (conditions): peptide 200 μg/mL, CAMHB, 5 × 10^5 CFU/mL, 37°C, 12 h, OD600; control (no AMP) = 1; three biological replicates

The subject of test [1] is Bacillus subtilis ATCC 23857. An outline of the steps:
(§1)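 Log-phase bacteria (OD600 0.5) in CAMHB diluted to 5 × 10^5 CFU/mL and exposed to 200 μg/mL peptide for 12 h at 37 °C, triplicate biological replicates. OD600 corrected for blank and peptide-only controls, compared with untreated growth by t-test (p 0.05); MIC taken as lowest concentration with no visible growth.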

Test [2] concerns Salmonella bongori ATCC 43975. In short, it runs like this: as §1
Test [3] concerns Vibrio owensii ems001. In short, it runs like this: as §1
Test [4] deals with Micrococcus luteus ATCC 4698. In short, it runs like this: as §1
For test [5], the system named is Vibrio alginolyticus xv22. An outline of the steps: as §1
Test [6] relates to Escherichia coli ATCC 11775. An outline of the steps:
as §1

In test [7] the test system is Acinetobacter baumannii ATCC 19606. In short, it runs like this:
as §1

Test [8] deals with Staphylococcus aureus ATCC 12600. An outline of the steps:
as §1

Take “MGPHWRGPRWGRVGCWNL [Cand-154, chemically synthesized candidate AMP predicted from marine biofilm bacteria]”: the “cell density relative to control, B. subtilis ATCC 23857” value in test [1] is listed as 0. In test [2], the “cell density relative to control, S. bongori ATCC 43975” value is on record as 0.544. For the same sequence, the “cell density relative to control, V. owensii ems001” value in test [3] is 0.004. Moreover, the “cell density relative to control, M. luteus ATCC 4698” value in test [4] stood at 0.814. Moreover, the “cell density relative to control, V. alginolyticus xv22” value in test [5] was 0.077. Further, in test [6], the “cell density relative to control, E. coli ATCC 11775” value is listed as 0.622. In addition, in test [7], the “cell density relative to control, A. baumannii ATCC 19606” value was found to be 1. The “cell density relative to control, S. aureus ATCC 12600” value in test [8] is listed as 0.038.

As to “MWWSKSIHQASFTRYRSYCRGCCTFSIRSCRYKRRII [Cand-180, chemically synthesized candidate AMP predicted from marine biofilm bacteria]”, the “cell density relative to control, B. subtilis ATCC 23857” value in test [1] stood at 0. For the same sequence, the “cell density relative to control, S. bongori ATCC 43975” value in test [2] is 0.025. In addition, in test [3], the “cell density relative to control, V. owensii ems001” value came out at 0. For the same sequence, the “cell density relative to control, M. luteus ATCC 4698” value in test [4] is on record as 0. The “cell density relative to control, V. alginolyticus xv22” value in test [5] is given as 0. Further, in test [6], the “cell density relative to control, E. coli ATCC 11775” value came to 0. Further, in test [7], the “cell density relative to control, A. baumannii ATCC 19606” value worked out at 0. In addition, the “cell density relative to control, S. aureus ATCC 12600” value in test [8] turned out to be 0.107.

Turning to “MWTIYSGIKRSLHYCRRRGYYCSRYGYYS [Cand-43, chemically synthesized candidate AMP predicted from marine biofilm bacteria]”, the “cell density relative to control, B. subtilis ATCC 23857” value in test [1] amounted to 0.67. Further, in test [2], the “cell density relative to control, S. bongori ATCC 43975” value was found to be 0. The “cell density relative to control, V. owensii ems001” value in test [3] turned out to be 0.215. For the same sequence, the “cell density relative to control, M. luteus ATCC 4698” value in test [4] is 0.297. Moreover, the “cell density relative to control, V. alginolyticus xv22” value in test [5] is given as 0.124. Also, in test [6], the “cell density relative to control, E. coli ATCC 11775” value was 0. The “cell density relative to control, A. baumannii ATCC 19606” value in test [7] stood at 0.385. Moreover, the “cell density relative to control, S. aureus ATCC 12600” value in test [8] was found to be 0.031.

Take “MYSVWPKSLRSVAGRGPKHRC [Cand-139, chemically synthesized candidate AMP predicted from marine biofilm bacteria]”: the “cell density relative to control, B. subtilis ATCC 23857” value in test [1] is 0.931. Besides, in test [2], the “cell density relative to control, S. bongori ATCC 43975” value is on record as 0.426. In test [3], the “cell density relative to control, V. owensii ems001” value is 0.342. Besides, the “cell density relative to control, M. luteus ATCC 4698” value in test [4] is reported as 1. Besides, the “cell density relative to control, V. alginolyticus xv22” value in test [5] came out at 0.013. In test [6], the “cell density relative to control, E. coli ATCC 11775” value was found to be 0.764. Moreover, the “cell density relative to control, A. baumannii ATCC 19606” value in test [7] stood at 0.959. Besides, the “cell density relative to control, S. aureus ATCC 12600” value in test [8] came to 0.

“MGTYPKVGNSHWKR [Cand-69, chemically synthesized candidate AMP predicted from marine biofilm bacteria]”: the “cell density relative to control, B. subtilis ATCC 23857” value in test [1] is listed as 1. Besides, the “cell density relative to control, S. bongori ATCC 43975” value in test [2] is listed as 0.886. The “cell density relative to control, V. owensii ems001” value in test [3] turned out to be 1. Further, the “cell density relative to control, M. luteus ATCC 4698” value in test [4] worked out at 1. In test [5], the “cell density relative to control, V. alginolyticus xv22” value is recorded as 1. In test [6], the “cell density relative to control, E. coli ATCC 11775” value turned out to be 1. Further, the “cell density relative to control, A. baumannii ATCC 19606” value in test [7] was found to be 0.889. Further, the “cell density relative to control, S. aureus ATCC 12600” value in test [8] is recorded as 0.819.

“MCTSKKKVWRCVAPS [Cand-33, chemically synthesized candidate AMP predicted from marine biofilm bacteria]”: the “cell density relative to control, B. subtilis ATCC 23857” value in test [1] was found to be 0.601. For the same sequence, in test [2], the “cell density relative to control, S. bongori ATCC 43975” value turned out to be 1. The “cell density relative to control, V. owensii ems001” value in test [3] was 1. The “cell density relative to control, M. luteus ATCC 4698” value in test [4] is 1. The “cell density relative to control, V. alginolyticus xv22” value in test [5] came out at 0.879. In addition, the “cell density relative to control, E. coli ATCC 11775” value in test [6] amounted to 0.96. Further, the “cell density relative to control, A. baumannii ATCC 19606” value in test [7] was found to be 0.813. The “cell density relative to control, S. aureus ATCC 12600” value in test [8] worked out at 0.874.

For the sequence “MRPGMCRIGGRL [Cand-22, chemically synthesized candidate AMP predicted from marine biofilm bacteria]”, the “cell density relative to control, B. subtilis ATCC 23857” value in test [1] is listed as 1. Besides, the “cell density relative to control, S. bongori ATCC 43975” value in test [2] came out at 0.876. For the same sequence, the “cell density relative to control, V. owensii ems001” value in test [3] amounted to 1. For the same sequence, the “cell density relative to control, M. luteus ATCC 4698” value in test [4] worked out at 1. For the same sequence, the “cell density relative to control, V. alginolyticus xv22” value in test [5] is 0.862. Further, in test [6], the “cell density relative to control, E. coli ATCC 11775” value came out at 1. Further, the “cell density relative to control, A. baumannii ATCC 19606” value in test [7] was 1. Further, the “cell density relative to control, S. aureus ATCC 12600” value in test [8] came out at 0.777.

On to “MQPILKKAAPKHVGYFYKCYL [Cand-119, chemically synthesized candidate AMP predicted from marine biofilm bacteria]”, for which the “cell density relative to control, B. subtilis ATCC 23857” value in test [1] is 0.838. The “cell density relative to control, S. bongori ATCC 43975” value in test [2] is 0.699. In addition, in test [3], the “cell density relative to control, V. owensii ems001” value stood at 0.046. In test [4], the “cell density relative to control, M. luteus ATCC 4698” value is 1. In test [5], the “cell density relative to control, V. alginolyticus xv22” value is 0.73. Further, the “cell density relative to control, E. coli ATCC 11775” value in test [6] came to 0.618. Further, the “cell density relative to control, A. baumannii ATCC 19606” value in test [7] was 0.908. For the same sequence, the “cell density relative to control, S. aureus ATCC 12600” value in test [8] is listed as 0.

“MCCVGRGVSFLRTRKCFIKS [Cand-161, chemically synthesized candidate AMP predicted from marine biofilm bacteria]”: the “cell density relative to control, B. subtilis ATCC 23857” value in test [1] was 0. In addition, the “cell density relative to control, S. bongori ATCC 43975” value in test [2] is given as 0.12. Besides, the “cell density relative to control, V. owensii ems001” value in test [3] was 0. For the same sequence, in test [4], the “cell density relative to control, M. luteus ATCC 4698” value amounted to 0.788. Besides, the “cell density relative to control, V. alginolyticus xv22” value in test [5] is given as 0. Further, the “cell density relative to control, E. coli ATCC 11775” value in test [6] was found to be 0. In addition, the “cell density relative to control, A. baumannii ATCC 19606” value in test [7] was found to be 0.543. In test [8], the “cell density relative to control, S. aureus ATCC 12600” value is reported as 0.001.

“MWWSKSIHQACFTRYRGYCRWCCTFSIRSCRY [Cand-3, chemically synthesized candidate AMP predicted from marine biofilm bacteria]”: in test [1], the “cell density relative to control, B. subtilis ATCC 23857” value is 1. Besides, the “cell density relative to control, S. bongori ATCC 43975” value in test [2] is listed as 0.438. Also, in test [3], the “cell density relative to control, V. owensii ems001” value is reported as 0. For the same sequence, the “cell density relative to control, M. luteus ATCC 4698” value in test [4] amounted to 1. Besides, the “cell density relative to control, V. alginolyticus xv22” value in test [5] is 0. Further, in test [6], the “cell density relative to control, E. coli ATCC 11775” value is 0.786. For the same sequence, the “cell density relative to control, A. baumannii ATCC 19606” value in test [7] came to 0.702. In addition, in test [8], the “cell density relative to control, S. aureus ATCC 12600” value is given as 0.

For the sequence “MTWPSRSRMWRTC [Cand-129, chemically synthesized candidate AMP predicted from marine biofilm bacteria]”, the “cell density relative to control, B. subtilis ATCC 23857” value in test [1] came out at 0.061. Also, in test [2], the “cell density relative to control, S. bongori ATCC 43975” value is reported as 0.704. Besides, the “cell density relative to control, V. owensii ems001” value in test [3] was determined as 0.021. The “cell density relative to control, M. luteus ATCC 4698” value in test [4] amounted to 0.751. Moreover, the “cell density relative to control, V. alginolyticus xv22” value in test [5] was found to be 0.004. Besides, in test [6], the “cell density relative to control, E. coli ATCC 11775” value turned out to be 0.692. Moreover, in test [7], the “cell density relative to control, A. baumannii ATCC 19606” value is listed as 1. In test [8], the “cell density relative to control, S. aureus ATCC 12600” value stood at 0.012.

The values are drawn from article PMC11683478, “Bioprospecting of culturable marine biofilm bacteria for novel antimicrobial peptides” (iMeta, 2024).
